# Test results as given in paper PMC4201456, “Cytoxicity and Apoptotic Mechanism of Ruthenium(II) Amino Acid Complexes in Sarcoma-180 Tumor Cells” (PLoS ONE, 2014).
# How the values were obtained:
# Assay type in all cases: cell-based, murine
# [1] = tested on: Bak protein; assay: Western blot analysis of Bak protein; details: S180 cells, 60 µM, 24 h; normalized to β-actin; control 5.08
# Protocol: The S180 cells were treated with 40 µM and 60 µM complex 2 for 24 h. Untreated cells maintained in media only were used as the control. After treatment, the cells were washed with PBS and lysed with lysis buffer (Invitrogen). The samples were stored at −20°C until further analysis. The protein concentrations of the resulting lysates were determined using the Bradford assay. A total of 70 µg of protein extract was mixed with Laemmli loading buffer and subjected to 12% SDS-PAGE at 100 V for 2 h, followed by electroblotting to nitrocellulose membranes (0.45 µm) (Bio-Rad Laboratories, Inc.) at 400 mA for 1.5 h. […] The membranes were washed in TBS-T, incubated with an HRP-conjugated IgG secondary antibody (Santa Cruz Biotechnology Inc., 1∶1000 dilution) for 1 h, and washed with TBS-T. The immunoreactive bands were detected using an ECL western blotting substrate (Super Signal West Pico Substrate, Thermo Scientific), and the ECL signals were captured using a CCD camera (ImageQuant LAS 4000 mini; GE Healthcare). The optical density of the target protein bands was measured using IMAGE J software downloaded from the NIH website (http://rsb.info.nih.gov.ij/) to compare the protein levels. […]
# [2] = tested on: caspase-9; assay: Caspase activity colorimetric assay (LEHD-pNA); details: S180 cells, 40 µM, 24 h; control 100%
# Protocol: Direct measurement of the activity of caspases 3, 8, and 9 were performed using the ApoTarget Caspase 3, 8, and 9 Protease Assay (Invitrogen) according to the manufacturer's recommendations. After treatment with complex 2 (40 µM and 60 µM) for 24 h, the cells were lysed with chilled cell lysis buffer. The protein concentration was then measured using the BSA Protein Assay Kit (BioRad). An aliquot of the protein extract (75 µg) was mixed with 50 µL of 2X reaction buffer supplemented with 10 mM DTT and the substrates of DEVD-pNA (caspase-3), IETD-pNA (caspase-8), or LEHD-pNA (caspase-9). The mixtures were then incubated for 2 h at 37°C. Subsequently, the formation of p-nitroanilide in the samples was measured using an ELISA microplate reader at 405 nm. The increases in the activities of caspase-3, caspase-8, and caspase-9 were determined by comparing the results with the control.
# [3] = tested on: S180 tumor cells; assay: Annexin V-FITC/PI double staining, flow cytometry
# Protocol: The cell death of S180 tumor cells was examined using the Annexin V-FITC Apoptosis Detection Kit (BD Biosciences) according to the manufacturer's instructions. S180 cells were treated with complex 2 (40 µM and 60 µM) for 24 h and 48 h. Briefly, 5.0×10^5 cells were harvested and washed with PBS. The cells were re-suspended in 400 µL of binding buffer. Next, 5 µL of Annexin V-FITC and 1 µL of PI were added. Flow cytometric analysis was performed immediately after supravital staining. Data acquisition and analysis were performed on a flow cytometer (FACSCalibur, BD Biosciences) using Cell Quest software. The criteria for positivity in cells in early stages of apoptosis were Annexin V-positive and PI-negative, whereas the criteria for cells in the late stages of apoptosis were both Annexin V-positive and PI-positive.
# [4] = tested on: S180 cells; assay: Cell cycle analysis by PI flow cytometry
# Protocol: The S180 cells were treated with complex 2 (40 µM and 60 µM) for 24 h and 48 h. Briefly, 5.0×10^5 cells were harvested by centrifugation, washed with phosphate-buffered saline (PBS), fixed with 70% (v/v) cold ethanol and stored overnight at −20°C. The fixed cells were washed with PBS and incubated with propidium iodide (PI; Sigma-Aldrich) containing 0.05% RNase. The samples were incubated at 4°C in the dark and analyzed by flow cytometry (FACS Calibur, BD Biosciences). The percentage of cells in the G0/G1, S, G2/M and sub-G1 phases was analyzed using ModFit software.
smiles,measurement,setting,value
"F[P-](F)(F)(F)(F)F.NCC(=O)[O-].[Ru+2].c1ccc(-c2ccccn2)nc1.c1ccc(P(CCCCP(c2ccccc2)c2ccccc2)c2ccccc2)cc1 [Complex 2, [Ru(gly)(bipy)(dppb)]PF6]",expression level of the Bak protein,[1],9.40 fold
same,activity of caspase-9,[2],176.43%
same,cells in early apoptosis (Annexin V+ and PI-),"[3]; 40 µM, 24 h",19.76%
same,cells in late apoptosis (Annexin V+ and PI+),"[3]; 40 µM, 24 h",22.76%
same,cells in early apoptosis (Annexin V+ and PI-),"[3]; 40 µM, 48 h",42.59%
same,cells in late apoptosis (Annexin V+ and PI+),"[3]; 40 µM, 48 h",25.16%
same,cells in early apoptosis (Annexin V+ and PI-),"[3]; 60 µM, 24 h",22.48%
same,cells in late apoptosis (Annexin V+ and PI+),"[3]; 60 µM, 24 h",31.67%
same,cells in early apoptosis (Annexin V+ and PI-),"[3]; 60 µM, 48 h",47.48%
same,cells in late apoptosis (Annexin V+ and PI+),"[3]; 60 µM, 48 h",30.24%
same,fraction of G0/G1 cells,"[4]; 40 µM, 24 h, control 23.6%",61.07%
same,fraction of G0/G1 cells,"[4]; 40 µM, 48 h, control 41.55%",59.94%
same,fraction of G0/G1 cells,"[4]; 60 µM, 24 h, control 23.6%",56.09%
same,fraction of G0/G1 cells,"[4]; 60 µM, 48 h, control 41.55%",59.86%
